Experiment [1] relates to NSC-34 motoneuron-like cells. The experiment can be described thus: MTT cell survival assay of NSC-34 motoneuron-like cells under tunicamycin-induced ER stress. The class given is cell-based, mouse. Conditions: for MTT assay (% sample vs control), Mean: concomitant TN 1 μg/mL, 24 h, C1 = 0.11 mM acamprosate calcium + 4 μM ribavirin, single drugs 0.11 mM acamprosate calcium, 4 μM ribavirin, 10 μM PRE084; for Corrected Response (Response less control 62.956%) / Response (% neuronal cell survival after ER stress): tunicamycin, MTT. The method, then:
For the in vitro studies, we assessed cell survival of the NSC-34 motoneuron-like cells with a conventional MTT-based assay. NSC-34 is a hybrid cell line produced by fusion of neuroblastoma with mouse motoneuron-enriched primary spinal cord cells, which express properties characteristic of MNs, including the generation of action potentials, the presence of specific neurofilaments and acetylcholine signaling. […] Tunicamycin is a power that was dissolved in DMSO to 10 mg/ml final concentration and then diluted in Dulbeco's modified eagle medium (DMEM) medium at the final working solution indicated in figure legends. The rest of drugs, C1, Acamprosate calcium and Ribavirin were dissolved in water and then in DMEM medium at the final working solutions: 0.11 mM Acamprosate calcium (ACA), 4 μM Ribavirin (RIB) alone or in C1, at a final volume of 100 μI for MTT assays.
We assessed the neuroprotective effect of C1 (acamprosate calcium 0.11 mM+ribavirin 4 μM in 100 μl final volume) when added simultaneous to tunicamycin (TN) in the culture medium. We evaluated cell survival 24 h after the addition of toxin and therapeutic drugs performing an MTT conventional test.
In order to analyze the existence of possible additive neuroprotective effect between drugs, we determined the dose-effect relations of each individual drug (Acamprosate calcium 0.11 mM or Ribavirin 4 μM, both in 100 μI final volume) compared to equivalent doses for C1 (acamprosate calcium 0.11 mM+ribavirin 4 μM in 100 μI final volume).
In general terms: Tetrazolium dyes change colour on reduction, which living cells bring about.

Experiment [2] deals with motoneurons (MNs). Nature of the experiment: Rat model of peripheral nerve root avulsion (RA model): MN counts and immunohistochemistry at L4-L5 spinal cord. The class given is in vivo. The settings on record: for effect on the neuroprotective effect (MN survival) exerted by C1: RA-injured animals treated with C1 concomitantly. From the text: For in vivo studies, a pre-clinical rat model of peripheral nerve root avulsion (RA model) was generated as previously described (see Penas C Cytoskeletal and activity-related changes in spinal motoneurons after root avulsion. Journal of Neurotrauma, 2009). Briefly, a midline skin incision was made at the level of the iliac crest, the right sciatic nerve was identified and the L4 and L5 spinal nerves were separated. A moderate traction was applied to produce extravertebral nerve root avulsion, leading to a retrograde degeneration of around 80% of the injured MNs within a month. The left roots were kept intact as control sham. We intratechally administered the vehicle (artificial cerebrospinal fluid (aCSF) [NaCl (124 mM), KCl (3 mM), NaHCO3 (26 mM), CaCl2/2H2O (2 mM), MgSO4/7H2O (1 mM), KH2PO4 (1.25 mM) and D-Glucose (10 mM)] or the positive control drug for neuroprotection (PRE084, 1-phenylcyclohexanecarboxylate hydrochloride, 1.7 μg/kg/day), C1 (Acamprosate calcium 96 μg/Kg/day (equivalent to 86.9 μg/Kg/day acamprosate free acid)+Ribavirin 0.48 μg/Kg/day) or acamprosate calcium (96 μg/Kg/day) (equivalent to 86.9 μg/Kg/day acamprosate free acid) alone and ribavirin (0.48 μg/Kg/day) alone. For this purpose, we used a programmable micro-infusion pump system (iPrecio, Primetech) to continuously perfuse the drugs into the animal CSF during 20 days from the following day after RA. […] experimental animal groups with RA were defined: one was treated with C1, another was treated with Pre084 (positive control), another was treated with Acamprosate calcium alone (A), another was treated with Ribavirin alone (B), another was treated with vehicle alone, another was left untreated (control). […] Images from microscope were digitally captured and analyzed using several plugins of the ImageJ Software.

The subject of experiment [3] is motoneurons (MNs). The settings on record: cited from earlier work.
[4] abbreviates: ribavirin alone, Dose DB 0.1X (1X = 4 μM).
Where [5] appears, read: ribavirin alone, Dose DB 0.2X (1X = 4 μM).
The mark [6] stands for this setting: ribavirin alone, Dose DB 0.5X (1X = 4 μM).
The mark [7] stands for this setting: ribavirin alone, Dose DB 1X (4 μM).
[8] abbreviates: acamprosate calcium alone, Dose DA 0.1X (1X = 0.11 mM).
Where [9] appears, read: acamprosate calcium alone, Dose DA 0.2X (1X = 0.11 mM).
The mark [10] stands for this setting: acamprosate calcium alone, Dose DA 0.5X (1X = 0.11 mM).
Setting [11] is: acamprosate calcium alone, Dose DA 1X (0.11 mM).

Structures are written as SMILES. Where two headings read alike, the source gives them in different places.

Data on six compounds can be found in US20180311191A1, “NEW COMBINATION THERAPIES FOR TREATING NEUROLOGICAL DAMAGE” (UNIVERSITAT AUTONOMA DE BARCELONA, priority 2015, published 2018).

As to `NC(=O)c1ncn([C@@H]2O[C@H](CO)[C@@H](O)[C@H]2O)n1` [ribavirin, 1-[(2R,3R,4S,5R)-3,4-dihydroxy-5-(hydroxymethyl)oxolan-2-yl]-1H-1,2,4-triazole-3-carboxamide], in experiment [1] (NSC-34 cells), the “MTT assay (% sample vs control), Mean” value was 68.07%. Further, the “Corrected Response (Response less control 62.956%)” value is given as 5.71% in experiment [1] (setting [4]), 7.93% in experiment [1] (setting [5]), 2.72% in experiment [1] (setting [6]) and 5.69% in experiment [1] (setting [7]). In addition, the “Response (% neuronal cell survival after ER stress)” value in experiment [1] (setting [4]) amounted to 68.662%; in experiment [1] (setting [5]) it was 70.886%; in experiment [1] (setting [6]), 65.676%; in experiment [1] (setting [7]), 68.647%.

With `NC(=O)C1CCCc2c1[nH]c1ccc(Cl)cc21` (centres unmarked) [EX-527, 6-chloro-2,3,4,9-tetrahydro-1H-carbazole-1-carboxamide], in the experiment with motoneurons (MNs) [2], the “effect on the neuroprotective effect (MN survival) exerted by C1” value is listed as “abolished the neuroprotective effect”.

With `NCCCCNCCCN` [spermidine], the “effect on the neuroprotective effect (MN survival) exerted by C1” value with motoneurons (MNs) [2] is given as “did maintain it”.

In the case of `Nc1nc2ccc(OC(F)(F)F)cc2s1` [riluzole], the values for the neuroprotective effect result in the experiment with motoneurons (MNs) [3] (model of spinal root avulsion with reimplantation) and in the experiment on motoneurons (MNs) [3] (models of root avulsion without reimplantation (Chew 2014)) were “maximum observed effect of neuroprotection” and “no neuroprotective effect”, respectively.

As to `O=C(OCCN1CCOCC1)C1(c2ccccc2)CCCCC1` [PRE084, 2-(4-Morpholinethyl)1 Phenylcyclohexanecarboxylate], the “neuroprotection against TN stress compared with C1” value in experiment [1] (NSC-34 cells, TN 1 μg/mL, 10 μM PRE084, MTT) is given as “did not neuroprotect the cells as efficiently as C1”. In addition, in experiment [1] (NSC-34 cells), the “MTT assay (% sample vs control), Mean” value was found to be 68.81%. Also, the “MN survival compared to the vehicle group” value in the experiment on motoneurons (MNs) [2] (root avulsed rats, intrathecal infusion 20 days, 21 days post-injury, C1 = 96 μg/Kg/day acamprosate calcium + 0.48 μg/Kg/day ribavirin, PRE084 1.7 μg/kg/day) is “significantly different to the vehicle group”. For the same compound, the “induction of MN survival” value with motoneurons (MNs) [3] (spinal root avulsion (Penas et al. 2011)) was 50-60%.

Regarding `CC(=O)NCCCS(=O)(=O)O` [acamprosate calcium, 3-acetamidopropane-1-sulfonic acid], in experiment [1] (NSC-34 cells), the “MTT assay (% sample vs control), Mean” value came to 65.80%. Further, the “Corrected Response (Response less control 62.956%)” value was 3.52% in experiment [1] (setting [8]), 2.96% in experiment [1] (setting [9]), 3.89% in experiment [1] (setting [10]) and 2.46% in experiment [1] (setting [11]). Further, the “Response (% neuronal cell survival after ER stress)” value in experiment [1] (setting [8]) was determined as 66.475%; in experiment [1] (setting [9]), 65.918%; in experiment [1] (setting [10]), 66.849%; in experiment [1] (setting [11]), 65.417%.
